Experiment: Inhibition of human recombinant IMPDH assessed as NADH formation by spectrophotometry; call rule not given here

Row | IC50 | IC50 (read-out: IC50) | SMILES
1 | Not Active |  | COCc1cc(Br)c(O)c(O)c1Cc1ccc(O)c(Br)c1 [AVRAINVILLEOL METHYL ETHER]
2 |  | 7.4 µM | OCc1c(Cc2ccc(O)c(Br)c2)c(O)c(O)c(Br)c1Cc1cc(Br)c(O)c(O)c1Cc1ccc(O)c(Br)c1 [ISORAWSONOL]
3 |  | 18 µM | OCc1cc(Br)c(O)c(O)c1Cc1ccc(O)c(Br)c1 [AVRAINVILLEOL]
4 |  | 10 µM | COCc1cc(Br)c(O)c(O)c1Cc1cc(Br)c(O)c(Cc2cc(Br)c(O)c(O)c2Cc2ccc(O)c(Br)c2)c1 [RAWSONOL]
5 | Not Active |  | OCc1cc(O)c(O)c(Br)c1

— ChEMBL document CHEMBL1148044, “Isorawsonol and related IMP dehydrogenase inhibitors from the tropical green alga Avrainvillea rawsonii” (J Nat Prod, 1994)
